Consider seven molecules from paper PMC7170889, “Synthesis and evaluation of designed PKC modulators for enhanced cancer immunotherapy” (Nature Communications, 2020).

Assay [1] relates to CD22 surface expression in NALM6 cells. Briefly: CD22 surface expression in NALM6 cells (flow cytometry). Type of assay: cell-based, human. As to conditions: NALM6 cells at 1 nM relative to DMSO control, 24 h incubation, washout, 24 h sub-culture, n = 3; for fold induction at 0.001 µM: Homo sapiens, NALM-6, 24 h, read-out: Fold increase CD22 expression. How it is done:
CD22 Surface Expression Protocol – NALM6 Cells […]
unless otherwise noted below) at 37 ° C in an incubator (5% CO2). Cell cultures were maintained […]
Cell suspension from a confluent T75 flask (Fisher) was transferred to a 15 mL falcon tube and centrifuged at 1100 rpm for 7 minutes. The supernatant was aspirated, and the cell pellet was […]
Cells were counted using a Countess II Automated Cell
199 µL of this stock was added to 24 wells (enough for triplicate measurements for 8 different experimental conditions) in a 96-well plate. Dosing was […]
each experiment. 1 µL of DMSO or the appropriate stock solution of compound in DMSO was added to each well. Cells were incubated for 24 hours, at which point the cell suspensions were transferred to 1.5 mL Eppendorf tubes and diluted with 1.0 mL of PBS (Hyclone, without Ca2+ or Mg2+). Samples were centrifuged at 2000 rpm for 5 min at RT. The supernatant was aspirated, […]
Cells were sub-cultured between 2 […]
surface expression was assayed by flow cytometry.
Cells from one well were counted using a Countess II Automated Cell Counter (Fisher). ~200,000 – 300,000 cells from each well were added to 1.5 mL Eppendorf tubes containing PBS (final volume ~1.2 mL). The cell suspensions were centrifuged at 1500 rpm for 7 minutes at 4 °C. The supernatant was aspirated, and the cell pellet was resuspended in 99 µL of pre-chilled FACS […]
buffer (0.5% w/v BSA in PBS). […]
minutes. Samples were then diluted with an additional 1.0 mL of FACS buffer and centrifuged at 1500 rpm for 7 minutes at 4 °C. The supernatant was aspirated, the cell pellets were resuspended in 200 µL FACS buffer, and the resulting suspensions were transferred to FACS tubes (Fisher, […]
Cells were stained with DAPI and CD22 surface expression was analyzed using the FACScan Analyzer at the Stanford Shared FACS Facility. Data analysis was performed using FlowJo and Microsoft Excel.

Another assay deals with T1, PKCα (Homo sapiens, UniProt P17252).
T1 construct: purchased Invitrogen
Briefly: PKC competitive binding assay with [3H]-phorbol dibutyrate (PKCα). As to conditions: cell-free, competition with [3H]-PDBu, PS vesicles; read-out: Ki PKCα. The method, then:
With a panel of compounds bearing diverse functionality at C13, we began to explore how these modifications affect PKC binding and biological function. Because an obvious prerequisite for PKC pathway involvement is binding to PKC, compounds were initially evaluated for PKC affinity in a cell-free competitive binding assay with tritiated phorbol dibutyrate ([^3H]-PDBu). Assays were performed with representative members of both the conventional (PKCα) and novel (PKCδ) PKC families. Subsequently, compounds were assayed for PKC isoform translocation in real time in living cells using an optical assay. Translocation to the plasma membrane is the hallmark of PKC activation[18],[57],[60] and therefore monitoring the subcellular localization of a PKCδ-GFP fusion protein via confocal microscopy offers a convenient method for determining whether a compound enters a cell and engages its PKC isoform target. Finally and of clinical significance, we also determined the effect of compounds on CD22 surface expression in vitro in NALM6 cells, an ALL cell line previously studied in connection with CD22-targeted CAR T cell therapy, and two additional lymphoma cell lines[11],[31],[65].
PKC Binding Assay Protocol […]
competition with 3H-phorbol-12,13-dibutyrate (3H-PDBu) as described below. This procedure entails a glass-fiber filtration method to determine bound radioligand.
Preparation of PKC binding assay buffer
To a 50 mL polypropylene tube was added Tris-HCl (pH 7.4, 1 M, 1 mL), KCl (1 M, 2 mL), CaCl2 (0.1 M, 30 μL), and bovine serum albumin (BSA, 40 mg, Sigma-Aldrich). This mixture was diluted to 20 mL with deionized H2O and mixed gently. The buffer was stored on ice until use. The final […]
Supplementary Table1. PKC binding assay buffer composition.
Preparation of phosphatidylserine (PS) vesicles
For every two assays, 3.5 mg phosphatidylserine (Avanti Polar Lipids, porcine, 25 mg/mL CHCl3 solution) was concentrated by removing chloroform under a stream of nitrogen followed by reduced pressure. The solid PS was suspended as vesicles in freshly prepared PKC binding assay buffer (3.5 mL) by sonicating six times for 30 sec, with a 30 sec rest between sonications (Branson Sonifier 250, power = 2, 50% duty cycle). The resulting milky cloudy mixture (1 mg/mL) was stored […]
Preparation of PKC isoform solution
Assay PKC was prepared by dissolving a 4 μg aliquot of the indicated recombinant human PKC isoform (Invitrogen) into 11.6 mL of PKC binding assay buffer (this amount is sufficient for two assays). The diluted PKC was stored on ice for immediate use.
Preparation of 3H-PDBu solution
3H-PDBu (American Radiolabeled Chemicals, Inc.; 1 mCi/mL acetone solution; specific activity: […]) was diluted 10-fold with DMSO. The resulting 500 nM stock solution was further diluted with DMSO to 30 nM.
Preparation of analog compound dilutions
Compound dilutions were prepared by serially diluting from a chosen "high" concentration by factors of 3 or 4. For each analog compound, seven concentrations were used to define the […]
To a polypropylene tube was added 3.3 mL of 1 mg/mL PS vesicles solution, 11 mL of PKC isoform solution, and 1.1 mL of 30 nM 3H-PDBu solution were added. The resulting solution was vortexed to mix and stored on ice.
PKC binding assay protocol
- Glass-fiber filters (Whatman GF/B) were prepared by soaking them in a solution of aqueous polyethyleneimine (10% by vol, 18 mL) in deionized water (600 mL) for ≥1h.
- 500 mL "rinsing buffer" of 20 mM Tris, pH 7.4 was cooled on ice for the duration of the incubation period and for the remainder of the assay.
Triplicate data points were obtained for each analog concentration. For each data point, 280 μL of "Master Mix" Solution and 20 μL of analog compound at a specified concentration were added to a polypropylene tube. Non-specific 3H-PDBu binding was assessed in triplicate by substitution

With `CCCCCC#CC(=O)O[C@H]1/C(=C/C(=O)OC)C[C@H]2C[C@H]([C@@H](C)O)OC(=O)C[C@H](O)C[C@@H]3C[C@H](OC(C)=O)C(C)(C)[C@](O)(C[C@@H]4C[C@H](O)C[C@H](/C=C/C(C)(C)[C@]1(O)O2)O4)O3` [SUW204], the fold induction at 0.001 µM in assay [1] was 0.98. Also, at PKCα, the inhibition constant (Ki) was determined as 1.4 nM.
Consider `CCC/C=C/C=C/C(=O)O[C@H]1/C(=C/C(=O)OC)C[C@H]2C[C@H]([C@@H](C)O)OC(=O)C[C@H](O)C[C@@H]3C[C@H](OC(C)=O)C(C)(C)[C@](O)(C[C@@H]4C[C@@H](OC(C)=O)C[C@H](/C=C/C(C)(C)[C@]1(O)O2)O4)O3` [SUW207], for which the “Fold increase CD22 expression” value in assay [1] is on record as 1.33 fold. Further, the Ki at PKCα amounted to 2 nM.
With `CCCC=CC=CC(=O)OC1C(=CC(=O)OC)CC2CC(C(C)O)OC(=O)CC(O)CC3CC(OC(C)=O)C(C)(C)C(O)(CC4CC(OC(=O)Nc5ccccc5)CC(C=CC(C)(C)C1(O)O2)O4)O3` (centres unmarked) [SUW208], in assay [1], the fold induction at 0.001 µM was 1.68. The inhibitory constant (Ki) at PKCα came to 1 nM.
For the molecule `CCCC=CC=CC(=O)OC1C(=CC(=O)OC)CC2CC(C(C)O)OC(=O)CC(O)CC3CC(OC(C)=O)C(C)(C)C(O)(CC4CC(OC(=O)CC56CC7CC(CC(C7)C5)C6)CC(C=CC(C)(C)C1(O)O2)O4)O3` (centres unmarked) [SUW209], in assay [1], the fold induction at 0.001 µM came to 1.45. For the same molecule, the Ki on PKCα worked out at 1.6 nM.
Regarding `CCCC=CC=CC(=O)OC1C(=CC(=O)OC)CC2CC(C(C)O)OC(=O)CC(O)CC3CC(OC(C)=O)C(C)(C)C(O)(CC4CC(OC(=O)CCc5c[nH]c6ccccc56)CC(C=CC(C)(C)C1(O)O2)O4)O3` (centres unmarked) [SUW210], the fold induction at 0.001 µM in assay [1] is 1.49. In addition, on PKCα, the Ki worked out at 5.6 nM.
`CCCC=CC=CC(=O)OC1C(=CC(=O)OC)CC2CC(C(C)O)OC(=O)CC(O)CC3CC(OC(C)=O)C(C)(C)C(O)(CC4CC(=CC(=O)OCC)CC(C=CC(C)(C)C1(O)O2)O4)O3` (centres unmarked) [SUW217]: the fold induction at 0.001 µM in assay [1] turned out to be 1.97. Besides, the Ki at PKCα is 9.2 nM.
For the molecule `CCCC=CC=CC(=O)OC1C(=CC(=O)OC)CC2CC(C(C)O)OC(=O)CC(O)CC3CC(OC(C)=O)C(C)(C)C(O)(CC4CC(=CC(=O)OCC)CC(C=CC(C)(C)C1(O)O2)O4)O3` (centres unmarked) [SUW218], the “Fold increase CD22 expression” value in assay [1] turned out to be 1.92 fold. Further, at PKCα, the Ki came to 7.1 nM.
